This test addresses T1, human GPR120 (Homo sapiens, UniProt Q5NUL3).
T1 construct: host or cells: HEK293 cells coexpressing Gqi5
T1 sequence (Q5NUL3 1-361): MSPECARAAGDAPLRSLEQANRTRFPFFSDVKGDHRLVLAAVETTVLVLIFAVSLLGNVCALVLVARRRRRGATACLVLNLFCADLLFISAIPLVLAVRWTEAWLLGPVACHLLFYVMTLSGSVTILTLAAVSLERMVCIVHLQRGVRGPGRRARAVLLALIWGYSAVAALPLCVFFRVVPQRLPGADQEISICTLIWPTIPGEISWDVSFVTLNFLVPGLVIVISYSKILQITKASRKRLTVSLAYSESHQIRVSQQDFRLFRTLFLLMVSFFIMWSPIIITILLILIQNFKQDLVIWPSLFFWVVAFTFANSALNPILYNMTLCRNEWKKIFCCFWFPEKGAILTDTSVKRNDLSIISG
The test is described as follows: Intracellular Ca2+ (FLIPR Calcium 4, Flexstation) assay in human GPR120 stable HEK293 cell line coexpressing Gqi5. The class given is cell-based. Conditions: for % Activity at 5 μM: 5 μM compound compared to the maximal activity of GW9508 at 6.7 μM (100%); for EC50: human GPR120 stably expressing cells, 8 concentrations 0.00001 to 20 μM. The procedure:
Human GPR120 stable cell line was purchased from Multispan Inc (26219 Eden Landing Road, Hayward, Calif. 94545). This GPR120 cell line was generated in HEK293 cells coexpressing Gqi5. In this cell line, the Flag epitope tag (DYKDDDDK) was fused to the amino terminus of human GPR120 protein.
The concentration of intracellular Ca^2+ was measured as described below. Human GPR120 cells were plated in 96 well plates (Poly-D-Lysine coated black/clear Plate, Greiner Bio-One) at 70,000 cells per well and cultured overnight in conditions of 37° C. and 5% CO2. A Ca^2+ assay dye stock solution was prepared by adding 10 mL of assay buffer (HBSS/20 mM HEPES, pH 7.4) to FLIPR Calcium 4 Assay Bulk Kit (Molecular Devices). The 10 mL of Ca^2+ assay dye solution was prepared by further diluting 0.5 mL of Ca^2+ assay dye stock solution with 10 mL of assay buffer. The medium of the cells was removed and immediately 100 μl of the Ca^2+ assay dye solution was dispensed into each well followed by incubation at 37° C. and 5% CO2 for 50 minutes to incorporate the Ca^2+ dye into the cells. The cell plate was then placed in the Flexstation (Molecular Devices) for 20 minutes at 37° C. Compounds were dissolved in 100% DMSO and diluted to desired concentrations with assay buffer and placed in Flexstation simultaneously with the cell plate for 20 minute incubation at 37° C. prior to reading. Fluorescence intensity was measured immediately following compound addition (25 μl/well) on the Flexstation at an excitation wavelength of 485 nm and an emission wavelength of 525 with 515 nm auto cutoff. The resulting increase in fluorescence intensities corresponds to increases in intracellular Ca^2+ levels.
Compounds were dissolved in 100% DMSO to a concentration of 20 mM to provide stock solutions. To determine activity against human GPR120, compounds were added with human GPR120 stably expressing cells (described above), at 8 desired concentrations ranging from 0.00001 to 20 μM, in 96 well plates and fluorescence intensities were measured for 90 seconds with 2-second intervals. An EC50 value (concentration of the GPR120 agonist where 50% of the agonist's maximal activity is observed) was calculated using the changes (Max-Min) of fluorescent intensity.
To determine percent activity for a tested compound, the fluorescence intensity value obtained at a particular concentration were compared to the maximal fluorescence intensity value obtained for reference compound GW9508 (4-[[(3-phenoxyphenyl)methyl]amino]benzene propanoic acid; British Journal of Pharmacology 2006 148, 619-628) that acts as a full agonist of the GPR120 receptor. The maximal activity of GW9508 is designated as 100% activity. Typically, the GW9508 activity reached a maximum at a concentration of approximately 6.7 μM. Activities of compounds that were tested according to this method are shown in Table 1 below and are expressed as % activity at 5 μM compound compared to the maximal activity of GW9508 at 6.7 μM.

Where [1] appears, read: read-out: EC50 between >1 μM and ≦10 μM.

In general, EC50 refers to the midpoint of the concentration-response curve.

Like-named read-outs stand apart in the source and are kept apart here.

`CC(C)c1cc(COc2c(F)cc(CCC(=O)O)cc2F)n(-c2ccccc2)n1` [Example 1, 3-(3,5-difluoro-4-((3-isopropyl-1-phenyl-1H-pyrazol-5-yl)methoxy)phenyl)propanoic acid]: the “% Activity at 5 μM” value amounted to 79%. For the same compound, the EC50 (read-out: EC50 ≦ 1 μM) is not above 1 µM.

Regarding `O=C(O)CCc1cc(F)c(OCc2snnc2-c2ccccc2)c(F)c1` [Example 2], the “% Activity at 5 μM” value is recorded as 77%. For the same compound, for the setting “read-out: EC50 ≦ 1 μM”, the EC50 is not above 1 µM.

As for `O=C(O)CCc1cc(F)c(OCc2cncn2-c2ccccc2)c(F)c1` [Example 3, 3-(3,5-difluoro-4-((1-phenyl-1H-imidazol-5-yl)methoxy)phenyl)propanoic acid], the “% Activity at 5 μM” value is 70%. For the same compound, the EC50 under setting [1] fell in the range of 1 to 10 µM.

For the compound `O=C(O)CCc1cc(F)c(OCc2cnnn2-c2ccccc2)c(F)c1` [Example 5, 3-(3,5-difluoro-4-((1-phenyl-1H-1,2,3-triazol-5-yl)methoxy)phenyl)propanoic acid], the “% Activity at 5 μM” value was 64%. The EC50 under setting [1] is 1 to 10 µM.

Take `O=C(O)CCc1cc(F)c(OCc2ncoc2-c2ccccc2)c(F)c1` [Example 10, 3-(3,5-difluoro-4-((5-phenyloxazol-4-yl)methoxy)phenyl)propanoic acid]: the “% Activity at 5 μM” value is recorded as 60%. Also, where the note is “read-out: EC50 ≦ 1 μM”, the EC50 is not above 1 µM.

For `O=C(O)CCc1cc(F)c(OCc2nccn2Cc2ccccc2)c(F)c1` [Example 11, 3-(4-((1-benzyl-1H-imidazol-2-yl)methoxy)-3,5-difluorophenyl)propanoic acid], the “% Activity at 5 μM” value turned out to be 75%. Moreover, under setting [1], the EC50 is 1 to 10 µM.

Turning to `Cc1cc(COc2c(F)cc(CCC(=O)O)cc2F)c(-c2ccccc2)o1` [Example 12, 3-(3,5-difluoro-4-((5-methyl-2-phenylfuran-3-yl)methoxy)phenyl)propanoic acid], the “% Activity at 5 μM” value is 70%. For the same compound, under setting [1], the half-maximal effective concentration (EC50) was 1 to 10 µM.

In the case of `Cn1ncc(COc2c(F)cc(CCC(=O)O)cc2F)c1-c1ccccc1` [Example 13, 3-(3,5-difluoro-4-((1-methyl-5-phenyl-1H-pyrazol-4-yl)methoxy)phenyl)propanoic acid], the “% Activity at 5 μM” value turned out to be 73%. In addition, the EC50 under setting [1] was 1 to 10 µM.

Take `Cc1onc(-c2ccccc2)c1COc1c(F)cc(CCC(=O)O)cc1F` [Example 14, 3-(3,5-difluoro-4-((5-methyl-3-phenylisoxazol-4-yl)methoxy)phenyl)propanoic acid]: the “% Activity at 5 μM” value is reported as 66%. Besides, the EC50 (read-out: EC50 ≦ 1 μM) was not above 1 µM.

With `Cc1noc(-c2ccccc2)c1COc1c(F)cc(CCC(=O)O)cc1F` [Example 15, 3-(3,5-difluoro-4-((3-methyl-5-phenylisoxazol-4-yl)methoxy)phenyl)propanoic acid], the “% Activity at 5 μM” value turned out to be 72%. The EC50 (read-out: EC50 ≦ 1 μM) was not above 1 µM.

As for `Cc1onc(-c2ccccc2)c1COc1c(F)cc(C2CC2C(=O)O)cc1F` (stereo not shown) [Example 16, 2-(3,5-difluoro-4-((5-methyl-3-phenylisoxazol-4-yl)methoxy)phenyl)cyclopropanecarboxylic acid], the “% Activity at 5 μM” value is reported as 60%. Moreover, the EC50 (read-out: EC50 ≦ 1 μM) is not above 1 µM.

Turning to `Cc1onc(-c2ccc(F)cc2)c1COc1c(F)cc(C2CC2C(=O)O)cc1F` (stereo not shown) [Example 17, 2-(3,5-difluoro-4-((3-(4-fluorophenyl)-5-methylisoxazol-4-yl)methoxy)phenyl)cyclopropanecarboxylic acid], the “% Activity at 5 μM” value turned out to be 78%. For the same compound, under setting [1], the EC50 lay within 1 to 10 µM.

On to `Cc1onc(-c2ccc(F)cc2)c1COc1c(F)cc(CCC(=O)O)cc1F` [Example 18, 3-(3,5-difluoro-4-((3-(4-fluorophenyl)-5-methylisoxazol-4-yl)methoxy)phenyl)propanoic acid], for which the “% Activity at 5 μM” value is reported as 77%. For the setting “read-out: EC50 ≦ 1 μM”, the EC50 is not above 1 µM.

In the case of `Cc1cc(-c2onc(C)c2COc2c(F)cc(CCC(=O)O)cc2F)no1` [Example 19, 3-(4-((3′,5-dimethyl-3,5′-biisoxazol-4′-yl)methoxy)-3,5-difluorophenyl)propanoic acid], the “% Activity at 5 μM” value is 69%. Besides, the EC50 (read-out: EC50 ≦ 1 μM) is not above 1 µM.

Regarding `O=C(O)CCc1cc(F)c(OCc2sccc2-n2cccc2)c(F)c1` [Example 20, 3-(4-((3-(1H-pyrrol-1-yl)thiophen-2-yl)methoxy)-3,5-difluorophenyl)propanoic acid], the “% Activity at 5 μM” value amounted to 88%. For the same compound, the EC50 (read-out: EC50 ≦ 1 μM) was not above 1 µM.

`COc1ccc(-c2noc(C)c2COc2c(F)cc(CCC(=O)O)cc2F)cc1` [Example 21, 3-(3,5-difluoro-4-((3-(4-methoxyphenyl)-5-methylisoxazol-4-yl)methoxy)phenyl)propanoic acid]: the “% Activity at 5 μM” value worked out at 97%. Further, the EC50 (read-out: EC50 ≦ 1 μM) is not above 1 µM.

On to `Cc1onc(-c2c(Cl)cccc2Cl)c1COc1c(F)cc(CCC(=O)O)cc1F` [Example 22, 3-(4-((3-(2,6-dichlorophenyl)-5-methylisoxazol-4-yl)methoxy)-3,5-difluorophenyl)propanoic acid], for which the “% Activity at 5 μM” value is reported as 75%. In addition, the EC50 under setting [1] is 1 to 10 µM.

As for `Cc1noc(C)c1COc1c(F)cc(CCC(=O)O)cc1F` [Example 23, 3-(4-((3,5-dimethylisoxazol-4-yl)methoxy)-3,5-difluorophenyl)propanoic acid], the “% Activity at 5 μM” value is reported as 63%. Further, the EC50 under setting [1] lay within 1 to 10 µM.

As for `Cc1onc(-c2ccc(Cl)cc2)c1COc1c(F)cc(CCC(=O)O)cc1F` [Example 24, 3-(4-((3-(4-chlorophenyl)-5-methylisoxazol-4-yl)methoxy)-3,5-difluorophenyl)propanoic acid], the “% Activity at 5 μM” value stood at 92%. Also, the EC50 (read-out: EC50 ≦ 1 μM) is not above 1 µM.

`Cc1cc(COc2c(F)cc(CCC(=O)O)cc2F)n(C(C)C)n1` [Example 25, 3-(3,5-difluoro-4-((1-isopropyl-3-methyl-1H-pyrazol-5-yl)methoxy)phenyl)propanoic acid]: the “% Activity at 5 μM” value is reported as 92%. For the same compound, the EC50 under setting [1] fell in the range of 1 to 10 µM.

Consider `Cc1onc(-c2ccccc2)c1C(=O)COc1c(F)cc(CCC(=O)O)cc1F` [Example 26, 3-(3,5-difluoro-4-(2-(5-methyl-3-phenylisoxazol-4-yl)-2-oxoethoxy)phenyl)propanoic acid], for which the “% Activity at 5 μM” value came out at 100%. The EC50 (read-out: EC50 ≦ 1 μM) is not above 1 µM.

For the compound `O=C(O)CCc1cc(F)c(OCc2ncsc2-c2ccccc2)c(F)c1` [Example 28, 3-(3,5-difluoro-4-((5-phenylthiazol-4-yl)methoxy)phenyl)propanoic acid], the “% Activity at 5 μM” value was 87%. Under “read-out: EC50 ≦ 1 μM”, the EC50 was not above 1 µM.

Regarding `O=C(O)CSc1ccc(OCc2snnc2-c2ccccc2)cc1` [Example 29, 2-(4-((4-phenyl-1,2,3-thiadiazol-5-yl)methoxy)phenylthio)acetic acid], the “% Activity at 5 μM” value is 85%. Under setting [1], the EC50 fell in the range of 1 to 10 µM.

In the case of `Cc1nc(-c2ccccc2)c(COc2c(F)cc(CCC(=O)O)cc2F)s1` [Example 30], the “% Activity at 5 μM” value is given as 80%. For the same compound, under setting [1], the EC50 lay within 1 to 10 µM.

With `O=C(O)CCc1cc(F)c(OCc2snnc2-c2ccc(F)cc2)c(F)c1` [Example 31, 3-(3,5-difluoro-4-((4-(4-fluorophenyl)-1,2,3-thiadiazol-5-yl)methoxy)phenyl)propanoic acid], the “% Activity at 5 μM” value stood at 85%. In addition, the EC50 (read-out: EC50 ≦ 1 μM) is not above 1 µM.

Consider `O=C(O)CCc1cc(F)c(OCc2snnc2-c2cccc(Cl)c2)c(F)c1` [Example 32, 3-(4-((4-(3-chlorophenyl)-1,2,3-thiadiazol-5-yl)methoxy)-3,5-difluorophenyl)propanoic acid], for which the “% Activity at 5 μM” value turned out to be 85%. The EC50 (read-out: EC50 ≦ 1 μM) was not above 1 µM.

The values above are taken from patent US20100216827A1 (Metabolex, Inc., priority 2008, published 2010).
